Legend:
[1] = tested on: carrageenin-induced paw edema; assay: Antiinflammatory activity by the carrageenin-induced hind paw edema; type: in vivo, mice (Std:ddY, male); conditions: mouse, 30 mg/kg p.o., mean ± standard error, n = 6
Protocol: Measurement of Antiinflammatory Activity by the Carrageenin-Induced Hind Paw Edema
Std:ddY Strain male mice (20-25 g) were fasted for one day before the experiment, and were used. After test compounds shown in Table 1 was formed to a salt with tartaric acid, this salt was dissolved in sterilized and distilled water at the rate of 30 mg/10 ml to give the test compound solution. As a control, sterilized and distilled water was used. One hour after the oral administration of test compound solutions, 25 μl of λ-carrageenin suspended in 0.9% physiological saline solution (0.5 mg/25 μl) was injected s.c. under the plantar surface of the right hind paw of a mouse and 25 μl of 0.9% physiological saline solution was injected s.c. under the plantar surface of the left hind paw of the same mouse. Three hours and five hours after carrageenin injection, the […] of the paw was measured with a dial gauge calliper. To the control group, One hour after the oral administration of sterilized and distilled water at the rate of 10 ml/kg, 25 μl of λ-carrageenin (0.5 mg/25 μl) suspended in 0.9% physiological saline solution was injected s.c. under the plantar surface of the right hind paw of a mouse and 25 μl of 0.9% physiological saline solution was injected s.c. under the plantar surface of the left hind paw of the same mouse and the later operation was done in the same manner as in the test compound dosing group mentioned above. The results were described as a swelling rate (%) obtained from the following equation.
Swelling rate (%)=(R-L)×100/L
R: the thickness of the right hind paw
L: the thickness of the left hind paw

yeast-induced fever = assay: Antipyretic activity on yeast-induced fever in rats; type: in vivo, rats (Wistar, male); conditions: rat, 2 hours after administration
Protocol: Measurement of Antipyretic Activity on Yeast-Induced Fever in Rats
Wistar Strain male rats (150-190 g) were fasted for one day before the experiment, and were used. Compounds of number (1) and (2) in Table 1 were formed to the tartaric acid salt and these salts were dissolved in 0.9% physiological saline solution at the rate of 10 mg/10 ml and these solution were used as test compound solution. In a control, 0.9% physiological saline solution was used. After rat rectal temperature was measured, 1 ml/100 g of body weight of 7.5% yeast/0.9% physiological saline solution was injected s.c. at dorsal position. Then, rat rectal temperature was measured at 4 hour after the injection of yeast and rats showing the increase rectal temperature by 1 degree or more were selected and used. Test compound solution was administered s.c. at 5 hours after the injection of yeast. The rectal temperature was measured 2 hours after the administration of test compound solution. The results were described with the difference between the rectal temperature before and after the administration of test compound solution.

[2] = tested on: pain threshold (tail-pressure); assay: Tail-pressure method, experiment combined with morphine administration; type: in vivo, mice (Std:ddY, male); conditions: for Inhibition rate: mean ± standard error, n = 7
Protocol: (3) Experiment Combined with Morphine Administration
Std:ddY Strain male mice (20-25 g) were fasted for one day before the experiment, and were used. In this experiment, the tartaric acid salt of a compound of number (2) in Table 1 and morphine hydrochloride were used. The tartaric acid salt of a compound of number (2) was dissolved in 0.9% physiological saline solution at the rate of 7 mg/10 ml. Morphine hydrochloride was dissolved in 0.9% physiological saline solution at the rates of 5 mg/2 ml, 3 mg/2 ml and 1 mg/2 ml. As a control, 0.9% phisiological saline solution was used. A tail-pressure apparatus was used in this experiments. Before the administration of test compounds, the pain threshold was measured twice at intervals of 30 minutes and those mice indicating a pain threshold of 50 to 100 mmHg were selected and used. Mice was divided in the following four groups, (i) control group, (ii) the administration group of the tartaric acid salt of a compound of number (2), (iii) the administration group of morphine hydrochloride and (iv) the combined administration group with the tartaric acid salt of a compound of number (2) and morphine hydrochloride. In the administration group of the tartaric acid salt of a compound of number (2), 0.9% physiological saline solution of this tartaric acid salt mentioned above was injected s.c. at the rate of 10 ml/kg and, 30 minutes later, 0.9% physiological saline solution was injected i.v. at the rate of 2 ml/kg. In the administration group of morphine hydrochloride, 0.9% physiological saline solution was injected s.c. at the rate of 10 ml/kg and, 30 minutes later, the above physiological saline solution of morphine hydrochloride was injected i.v. at the rate of 2 ml/kg. In the combined administration group with the tartaric acid salt of a compound of number (2) and morphine hydrochloride,the above physiological saline solution of the tartaric acid salt of a compound of number (2) was injected s.c. at the rate of 10 ml/kg and, 30 minutes later, the above physiological saline solution of morphine hydrochloride was injected i.v. at the rate of 2 ml/kg. In control group, 0.9% physiological saline solution was injected s.c. at the rate of 10 ml/kg and, 30 minutes later, 0.9% physiological saline solution was injected i.v. at the rate of 2 ml/kg. Each pain threshold was measured 10, 20 and 30 minutes after an intravenous injection. The results were described in Table 9 as an inhibition rate (%) indicating in the preceding paragraph (1).

With `CCN1CC2(COC)C(O)CC(OC)C34C5CC6(O)C(OC)C(OC(C)=O)C(O)(C5C6OC(=O)c5ccc(Cl)cc5)C(C(OC)C23)C14` (stereo not drawn) [(2), 15-O-acetyl-14-O-p-chlorobenzoylaconine] the Swelling rate ([1]; 3 hour) was 40 ± 9%, the Swelling rate ([1]; 5 hour) was 46 ± 9% and the “Change of rectal temperature” value (yeast-induced fever; 1 mg/kg s.c.) was 1.5 ± 0.2 °C. For the same compound, the “Change of rectal temperature” value (yeast-induced fever; 3 mg/kg s.c.) was 0.5 ± 0.2 °C, the “Change of rectal temperature” value (yeast-induced fever; 10 mg/kg s.c.) was 0.3 ± 0.1 °C and the Inhibition rate ([2]; compound (2) 7 mg/kg s.c. alone (morphine 0), 10 min after i.v. injection) was 30 ± 11%. The Inhibition rate ([2]; compound (2) 7 mg/kg s.c. alone (morphine 0), 20 min after i.v. injection) was 35 ± 12%, the Inhibition rate ([2]; compound (2) 7 mg/kg s.c. alone (morphine 0), 30 min after i.v. injection) was 37 ± 11% and the Inhibition rate ([2]; compound (2) 7 mg/kg s.c. combined with morphine 1 mg/kg i.v., 10 min) was 31 ± 12%. The Inhibition rate ([2]; compound (2) 7 mg/kg s.c. combined with morphine 1 mg/kg i.v., 20 min) was 36 ± 10%, the Inhibition rate ([2]; compound (2) 7 mg/kg s.c. combined with morphine 1 mg/kg i.v., 30 min) was 32 ± 7% and the Inhibition rate ([2]; compound (2) 7 mg/kg s.c. combined with morphine 3 mg/kg i.v., 10 min) was 47 ± 8%. It also gave an Inhibition rate ([2]; compound (2) 7 mg/kg s.c. combined with morphine 3 mg/kg i.v., 20 min) of 50 ± 9%, an Inhibition rate ([2]; compound (2) 7 mg/kg s.c. combined with morphine 3 mg/kg i.v., 30 min) of 38 ± 12% and an Inhibition rate ([2]; compound (2) 7 mg/kg s.c. combined with morphine 5 mg/kg i.v., 10 min) of 73 ± 13%. The Inhibition rate ([2]; compound (2) 7 mg/kg s.c. combined with morphine 5 mg/kg i.v., 20 min) was 77 ± 9%, the Inhibition rate ([2]; compound (2) 7 mg/kg s.c. combined with morphine 5 mg/kg i.v., 30 min) was 78 ± 9% and the “effect on the analgesic effect of morphine, in words” value ([2]; mouse, compound s.c., morphine i.v.) was “greatly potentiated the analgesic effect of morphine”.
